Experimental data reported in patent EP1089755B1, “PHARMACEUTICAL PREPARATIONS FOR USE IN COMBATTING OR PREVENTING SURFACE INFECTIONS CAUSED BY MICROORGANISMS” (priority 1998, dated 2000).
≈ marks a conversion by molar mass, not a printed value. Values belong to the compound of their own block, whether it stands above or below them.

Experiments:
[1] = system: C. glabrata Y110; test: Candida growth inhibition and MIC at several pH's in SLM or RPMI (96-well turbidity assay); format: cell-based, Candida glabrata; conditions: for MIC: Nakaseomyces glabratus, read-out: minimal inhibitory concentrations (MIC)
[2] = system: C. albicans Y106; test: MIC of antifungal agents (96-well turbidity assay, 24 hours); format: cell-based; conditions: Candida albicans, isolate Y106, SLM, read-out: minimum inhibitory concentrations (MIC)
[3] = system: C. albicans Y127; test: as above; format: cell-based; conditions: isolate Y127, SLM; for MIC: Candida albicans, read-out: minimum inhibitory concentrations (MIC)
[4] = system: C. glabrata Y110; test: as above; format: cell-based; conditions: for MIC: Nakaseomyces glabratus, Y110, 24 h, read-out: minimum inhibitory concentrations (MIC)
[5] = system: C. glabrata Y111; test: as above; format: cell-based; conditions: Nakaseomyces glabratus, isolate Y111, SLM, read-out: minimum inhibitory concentrations (MIC)
[6] = system: C. glabrata Y110; test: Synergy experiments (8 by 8 dilution matrix, Prichard and Shipman method); format: cell-based, Candida glabrata
[7] = system: Candida glabrata Y110; test: MIC in the presence of saliva (SLM or SLM/Saliva, pH 7.5); format: cell-based; conditions: Nakaseomyces glabratus
[8] = system: C. albicans ATCC 10231; test: MIC of antifungal agents (96-well turbidity assay, 24 hours); format: cell-based; conditions: Candida albicans, isolate 10231 (ATCC strain), SLM, read-out: minimum inhibitory concentrations (MIC)
[9] = system: C. albicans Y098; test: as above; format: cell-based; conditions: Candida albicans, isolate Y098, SLM, read-out: minimum inhibitory concentrations (MIC)
[10] = system: C. glabrata Y112; test: as above; format: cell-based; conditions: Nakaseomyces glabratus, isolate Y112, SLM, read-out: minimum inhibitory concentrations (MIC)
[11] = system: C. tropicana Y140; test: as above; format: cell-based; conditions: isolate Y140 (RPMI), RPMI-medium instead of SLM, read-out: minimum inhibitory concentrations (MIC)

SMILES: OC(Cn1cncn1)(Cn1cncn1)c1ccc(F)cc1F [Fluconazole, fluconazole]
MIC ([1]; Y110, RPMI, pH 5.0, 24 hours): 250 µg/mL (≈ 816 µM) | MIC ([1]; Y110, RPMI, pH 6.0, 24 hours): 110 µg/mL (≈ 359 µM) | MIC ([1]; Y110, RPMI, pH 7.0, 24 hours): 60 µg/mL (≈ 196 µM) | MIC ([1]; Y110, SLM, pH 5.6, 24 hours): 200 µg/mL (≈ 653 µM) | MIC ([1]; Y110, SLM, pH 6.5, 24 hours): 100 µg/mL (≈ 327 µM) | MIC ([1]; Y110, SLM, pH 7.5, 24 hours): 100 µg/mL (≈ 327 µM) | effect of an increase in pH of the medium on inhibition ([1]; SLM and RPMI): more efficient inhibition | MIC [2]: 10 µg/mL | MIC [3]: 10 µg/mL | MIC ([4]; isolate Y110, SLM): 159 µg/mL | minimum inhibitory concentrations (MIC) ([4]; isolate Y110, SLM): 156 ± 50 µg/mL | MIC [5]: 24 ± 7 µg/mL | UV ([6]; Fluconazole 0.0033 mg/ml alone): 1.150 | UV ([6]; Fluconazole 0.0066 mg/ml alone): 1.167 | UV ([6]; Fluconazole 0.01 mg/ml alone): 1.154 | UV ([6]; Fluconazole 0.033 mg/ml alone): 1.127 | UV ([6]; Fluconazole 0.1 mg/ml alone): 0.618 | UV ([6]; Fluconazole 0.2 mg/ml alone): 0.003 | UV ([6]; Fluconazole 0.33 mg/ml alone): 0.003 | UV ([6]; Fluconazole 0.5 mg/ml alone): 0.004 | inhibition at 3.3 µg/mL ([6]; Nakaseomyces glabratus, Y110, Fluconazole 0.0033 mg/ml alone): 0% | inhibition at 6.6 µg/mL ([6]; Nakaseomyces glabratus, Y110, Fluconazole 0.0066 mg/ml alone): 0% | inhibition at 10 µg/mL ([6]; Nakaseomyces glabratus, Y110, Fluconazole 0.01 mg/ml alone): 0% | inhibition at 33 µg/mL ([6]; Nakaseomyces glabratus, Y110, Fluconazole 0.033 mg/ml alone): 0% | inhibition at 100 µg/mL ([6]; Nakaseomyces glabratus, Y110, Fluconazole 0.1 mg/ml alone): 39.5% | inhibition at 200 µg/mL ([6]; Nakaseomyces glabratus, Y110, Fluconazole 0.2 mg/ml alone): 99.8% | inhibition at 330 µg/mL ([6]; Nakaseomyces glabratus, Y110, Fluconazole 0.33 mg/ml alone): 99.8% | inhibition at 500 µg/mL ([6]; Nakaseomyces glabratus, Y110, Fluconazole 0.5 mg/ml alone): 99.6% | MIC ([7]; Y110, SLM, pH 7.5): 100 µg/mL | MIC ([7]; Y110, SLM/Saliva (50%/50%), 24 hours): 40 µg/mL | MIC ([7]; Y110, SLM, pH 7.5, 24 hours): 100 µg/mL

MIC [8]: 0.06 ± 0.05 µg/mL | MIC [9]: 0.08 ± 0.03 µg/mL | MIC [2]: 0.082 ± 0.03 µg/mL | MIC [3]: 0.15 µg/mL | minimum inhibitory concentrations (MIC) [3]: 0.15 ± 0.07 µg/mL | MIC ([4]; isolate Y110, SLM): 0.173 ± 0.06 µg/mL | MIC [5]: 0.14 ± 0.07 µg/mL | MIC [10]: 0.4 ± 0.05 µg/mL
SMILES: C[C@@H]1[C@H](O)[C@@H](C)/C=C/C=C/C=C/C=C/C=C/C=C/C=C/[C@H](O[C@@H]2O[C@H](C)[C@@H](O)[C@H](N)[C@@H]2O)C[C@@H]2O[C@](O)(C[C@@H](O)C[C@@H](O)[C@H](O)CC[C@@H](O)C[C@@H](O)CC(=O)O[C@H]1C)C[C@H](O)[C@H]2C(=O)O [Amphoterricin B, Amphotericin B]

MIC ([4]; isolate Y110 (RPMI), RPMI-medium instead of SLM): 0.029 ± 0.005 µg/mL | MIC [11]: 35 ± 7.07 µg/mL
SMILES: Nc1nc(=O)[nH]cc1F [5-Fluorocytosine, 5-fluorocytosine]
